Laboratory results taken from ChEMBL document CHEMBL4513149, “CO-ADD screening of MMV (CH) - MMV compounds” (2021).
Values after ≈ are worked out from the molar mass of the structure shown.

Tests used:
Klebsiella pneumoniae = assay: microbe, parasite or virus in culture; details: ATCC 700603, 18 h, ASSAY_TEST Inhibition of Bacterial Growth, detection method Absorption (OD600), MEDIA CAMHB, plate type 384well, NBS, CORNING #3640
Description: Antibacterial activity against Klebsiella pneumoniae MDR ATCC 70063 (CO-ADD:GN_003); MIC in CAMBH media using NBS plates, by OD(600)

Pseudomonas aeruginosa = assay: microbe, parasite or virus in culture; details: ATCC 27853, 18 h, ASSAY_TEST Inhibition of Bacterial Growth, detection method Absorption (OD600), MEDIA CAMHB, plate type 384well, NBS, CORNING #3640
Description: Antibacterial activity against Pseudomonas aeruginosa ATCC 27853 (CO-ADD:GN_042); MIC in CAMBH media using NBS plates, by OD(600)

HEK293 = assay: cells; format: functional; details: Homo sapiens, ATCC CRL1573, HEK293; ASSAY_TEST Inhibition of Cell Viability; detection method Resazurin; Fluorescence (ex560/em590); MEDIA DMEM with 10% FBS; plate type 384well; TC; CORNING #3712; time 18 hr
Acinetobacter baumannii = assay: microbe, parasite or virus in culture; details: ATCC 19606, 18 h, ASSAY_TEST Inhibition of Bacterial Growth, detection method Absorption (OD600), MEDIA CAMHB, plate type 384well, NBS, CORNING #3640
Description: Antibacterial activity against Acinetobacter baumannii ATCC 19606 (CO-ADD:GN_034); MIC in CAMBH media using NBS plates, by OD600

Candida albicans = assay: microbe, parasite or virus in culture; details: ATCC 90028, ASSAY_TEST Inhibition of Fungal Growth, detection method Absorption (OD530), plate type 384well, NBS, CORNING #3640
Description: Antifungal activity against Candida albicans ATCC 90028 (CO-ADD:FG_001); MIC in YNB media using NBS plates, by OD630

Escherichia coli = assay: microbe, parasite or virus in culture; details: ATCC 25922, 18 h, ASSAY_TEST Inhibition of Bacterial Growth, detection method Absorption (OD600), MEDIA CAMHB, plate type 384well, NBS, CORNING #3640
Description: Antibacterial activity against Escherichia coli ATCC 25922 (CO-ADD:GN_001); MIC in CAMBH media using NBS plates, by OD(600)

Staphylococcus aureus = assay: microbe, parasite or virus in culture; details: ATCC 43300, 18 h, ASSAY_TEST Inhibition of Bacterial Growth, detection method Absorption (OD600), MEDIA CAMHB, plate type 384well, NBS, CORNING #3640
Description: Antibacterial activity against Staphylococcus aureus MRSA ATCC 43300 (CO-ADD:GP_020); MIC in CAMBH media, using NBS plates, by OD(600)

Description for Cryptococcus neoformans: Antifungal activity against Cryptococcus neoformans H99 ATCC 208821 (CO-ADD:FG_002); MIC in YNB media using NBS plates, by Resazurin OD(600-570)

Row | MIC (Klebsiella pneumoniae) [µM] | MIC (Pseudomonas aeruginosa) [µM] | MIC (Cryptococcus neoformans) [µM] | MIC (Acinetobacter baumannii) [µM] | MIC (Candida albicans) [µM] | MIC (Escherichia coli) [µM] | MIC (Staphylococcus aureus) [µM] | SMILES | CC50 (HEK293) [µM]
1 | > 10 | > 10 | > 10 | > 10 | > 10 | > 10 | > 10 | O=C(Nc1cccnc1)c1c(O)c2cccc3c2n(c1=O)CC3 | > 10
2 | > 10 | > 10 | > 10 | > 10 | > 10 | > 10 | > 10 | O=C(Nc1nnc(-c2ccc(Cl)cc2)o1)c1cccc(C(F)(F)F)c1 | > 10
3 | > 10 | > 10 | > 10 | > 10 | > 10 | > 10 | > 10 | O=C(COc1cccc(F)c1)Nc1nc(-c2ccccn2)cs1 | > 10
4 | > 10 | > 10 | > 10 | > 10 | > 10 | > 10 | > 10 | Brc1cncc(-c2cc(NCCCn3ccnc3)nc(-c3ccccc3)n2)c1 | > 10
5 | > 10 | > 10 | > 10 | > 10 | > 10 | > 10 | > 10 | CCc1c(C)nc(-n2nc(C)cc2NC(=O)c2ccccc2SC)[nH]c1=O | > 10
6 | > 10 | > 10 | > 10 | > 10 | > 10 | > 10 | 10 (≈ 3.46 µg/mL) | O=C(Nc1nnc(-c2ccc(Cl)s2)o1)c1ccc(Cl)s1 | > 10
7 | > 10 | > 10 | > 10 | > 10 | > 10 | > 10 | 10 (≈ 3.77 µg/mL) | COc1cccc(-c2nc3c(N4CCCC4)cccc3n2CC2CCCN2)n1 (configuration not stated) | > 10
8 | > 10 | > 10 | > 10 | > 10 | > 10 | > 10 | > 10 | O=C(c1ccco1)N(CCCn1ccnc1)c1nc2c(Cl)cccc2s1 | > 10
9 | > 10 | > 10 | > 10 | > 10 | > 10 | > 10 | > 10 | CC(=O)N1CCN(c2ccc(Oc3ccc(Cl)cc3O)cc2)CC1 | > 10
10 | > 10 | > 10 | > 10 | > 10 | > 10 | > 10 | > 10 | O=C(Nc1ccc2c(c1)B(O)OC2)c1ccccc1C(F)(F)F | > 10
11 | > 10 | > 10 | > 10 | > 10 | > 10 | > 10 | > 10 | Clc1cccc(C(c2ccc(CN3CCNCC3)cc2)n2ccnc2)c1 (configuration not stated) | > 10
12 | > 10 | > 10 | > 10 | > 10 | > 10 | > 10 | > 10 | O=C([C@@H](c1ccc(Cl)cc1)c1cccnc1)N1CCN(c2ccc(C(F)(F)F)cc2)CC1 | > 10
13 | > 10 | > 10 | > 10 | > 10 | > 10 | > 10 | > 10 | CCOC(=O)NC(=O)c1ccsc1NC(=O)c1nc2ccccc2s1 | > 10
14 | > 10 | > 10 | > 10 | > 10 | > 10 | > 10 | > 10 | Cc1nn2c(=O)c3c([nH]c2c1-c1ccc(Cl)cc1)CCCC3 | > 10
15 | > 10 | > 10 | > 10 | > 10 | > 10 | > 10 | 10 (≈ 3.64 µg/mL) | CC(c1cc(Cl)cc(Cl)c1)N(C)c1ncc2c(N)nc(N)nc2n1 (configuration not stated) | > 10
16 | > 10 | > 10 | > 10 | > 10 | > 10 | > 10 | > 10 | NC(CC(=O)c1ccc(Cl)cc1Cl)C(Cl)(Cl)Cl (configuration not stated) | > 10

Row | MIC (Klebsiella pneumoniae) [µM] | MIC (Pseudomonas aeruginosa) [µM] | MIC (Cryptococcus neoformans) [µM] | MIC (Acinetobacter baumannii) [µM] | MIC (Candida albicans) [µM] | MIC (Escherichia coli) [µM] | MIC (Staphylococcus aureus) [µM] | SMILES | CC50 (HEK293) [µM]
17 | > 10 | > 10 | > 10 | > 10 | > 10 | > 10 | 1.25 (≈ 0.448 µg/mL) | CC(=O)NCC1CN(c2ccc(-c3ccc(CO)cc3)c(F)c2)C(=O)O1 (configuration not stated) | > 10
18 | > 10 | > 10 | > 10 | > 10 | > 10 | > 10 | > 10 | COc1cccc(-n2nnnc2S(=O)(=O)Cc2ccccc2)c1 | > 10
19 | > 10 | > 10 | > 10 | > 10 | > 10 | > 10 | > 10 | c1csc(-c2cnc3sc(NCC4CCOCC4)nn23)c1 | > 10
20 | > 10 | > 10 | > 10 | > 10 | > 10 | > 10 | > 10 | CCCn1c(NC(=O)c2ccc3ccccc3n2)nc2ccccc21 | > 10
21 | > 10 | > 10 | > 10 | > 10 | > 10 | > 10 | > 10 | Nc1ccc2ncnc(Nc3ccc(OCc4cccc(F)c4)c(Cl)c3)c2c1 | > 10
22 | > 10 | > 10 | > 10 | > 10 | > 10 | > 10 | 10 (≈ 4.5 µg/mL) | NCCN(C(=O)c1ccc(Cl)cc1Cl)c1ccc(OCc2ccc(Cl)cc2)cc1 | > 10
23 | > 10 | > 10 | > 10 | > 10 | 5 (≈ 1.63 µg/mL) | > 10 | > 10 | Cc1[nH]c2ccccc2c1C(c1cccs1)N1CCN(C)CC1 (configuration not stated) | > 10
24 | > 10 | > 10 | > 10 | > 10 | > 10 | > 10 | 10 (≈ 4.38 µg/mL) | CC(=O)NCC1CN(c2ccc(-c3ccc(CNCc4cn[nH]n4)cc3)c(F)c2)C(=O)O1 (configuration not stated) | > 10
25 | > 10 | > 10 | > 10 | > 10 | > 10 | > 10 | > 10 | O=C(Nc1ccc(N2CCNCC2)cc1)c1ccn2ncc(-c3cccc(Cl)c3)c2n1 | 9.02
26 | > 10 | > 10 | > 10 | > 10 | > 10 | > 10 | > 10 | O=C(Nc1ccccc1)c1ccc(-c2cc3ccncc3cc2OC2CCNCC2)s1 | > 10
27 | > 10 | > 10 | > 10 | > 10 | > 10 | > 10 | > 10 | Cc1nc(-c2ccccn2)nc(N(C)CCc2ccccc2)c1Cl | > 10
28 | > 10 | > 10 | ≤ 0.0781 | > 10 | 0.156 (≈ 0.057 µg/mL) | > 10 | > 10 | Cc1nc(-c2ccccn2)nc(N2CCC(Cc3ccccc3)C2)c1Cl (configuration not stated) | > 10
29 | > 10 | > 10 | > 10 | > 10 | > 10 | > 10 | > 10 | COc1cc(C2=NCCN2)cc2cc(-c3ccc(C4=NCCN4)cc3)oc12 | > 10
30 | > 10 | > 10 | > 10 | > 10 | > 10 | > 10 | > 10 | Cc1ccc2c(c1C)NC(=O)C21NN=C(c2ccccc2)S1 (configuration not stated) | > 10
31 | > 10 | > 10 | > 10 | > 10 | > 10 | > 10 | 2.5 (≈ 0.843 µg/mL) | CC(=O)NC[C@@H]1CN(c2ccc(N3CCOCC3)c(F)c2)C(=O)O1 | > 10
32 | 10 (≈ 3.6 µg/mL) | 2.5 (≈ 0.9 µg/mL) | > 10 | > 10 | > 10 | 2.5 (≈ 0.9 µg/mL) | 0.625 (≈ 0.225 µg/mL) | COc1ccc(OC)c(NCc2ccc3nc(N)nc(N)c3c2Cl)c1 | > 10

Row | SMILES | MIC (Klebsiella pneumoniae) [µM] | MIC (Pseudomonas aeruginosa) [µM] | MIC (Cryptococcus neoformans) [µM] | MIC (Acinetobacter baumannii) [µM] | MIC (Candida albicans) [µM] | MIC (Escherichia coli) [µM] | MIC (Staphylococcus aureus) [µM] | CC50 (HEK293) [µM]
33 | O=C1O[C@@H](CO)CN1c1cc(F)c(C2=CCN(Cc3ccccc3)CC2)c(F)c1 | > 10 | > 10 | > 10 | > 10 | > 10 | > 10 | > 10 | > 10
34 | CO/N=C(\C(=O)OC)c1ccccc1CO/N=C(\C)c1cccc(C(F)(F)F)c1 | > 10 | > 10 | > 10 | > 10 | > 10 | > 10 | > 10 | > 10
